Assay results as given in paper PMC12397098, “3-Monothiopomalidomide, a new immunomodulatory imide drug (IMiD), blunts inflammation and mitigates ischemic stroke in the rat” (GeroScience, 2025).

How the values were obtained:
Test in all cases: PDSP radioligand binding
Settings in all cases: read-out: 3-MP concentration required to induce 50% inhibition of PDSP radioligand binding
[1] = biological target: δ-opioid receptor (Homo sapiens, UniProt P41143)
Method: (§1) To evaluate potential binding at classical neurological drug targets, 3-MP and 3,6’-DP were submitted to the National Institute on Mental Health (NIMH) Psychoactive Drug Screening Program (PDSP: Univ. N Carolina, Chapel Hill, NC, USA < https://pdspdb.unc.edu/pdspweb/ >) as powdered samples in the provided vials. The materials were then prepared at the PDSP in 10% DMSO, subjected to multiple assay screens, and processed as per the PDSP Assay Protocol Book (Version 3, March 2018). Compounds that exceeded an initial 10 uM binding threshold were then delegated for secondary dose–response analysis. This screen comprised a 45-target comprehensive panel of common brain receptor and transporter drug targets.

[2] = biological target: Histamine H1 receptor (Homo sapiens, UniProt P35367)
Method: as §1

[3] = biological target: T1, Serotonin 5-HT6 receptor (Homo sapiens, UniProt P50406)
T1 construct: NIMH Psychoactive Drug Screening Program (PDSP)
Method: as §1

[4] = biological target: NET transporter (Homo sapiens, UniProt P23975)
Chain of NET transporter (P23975 whole entry): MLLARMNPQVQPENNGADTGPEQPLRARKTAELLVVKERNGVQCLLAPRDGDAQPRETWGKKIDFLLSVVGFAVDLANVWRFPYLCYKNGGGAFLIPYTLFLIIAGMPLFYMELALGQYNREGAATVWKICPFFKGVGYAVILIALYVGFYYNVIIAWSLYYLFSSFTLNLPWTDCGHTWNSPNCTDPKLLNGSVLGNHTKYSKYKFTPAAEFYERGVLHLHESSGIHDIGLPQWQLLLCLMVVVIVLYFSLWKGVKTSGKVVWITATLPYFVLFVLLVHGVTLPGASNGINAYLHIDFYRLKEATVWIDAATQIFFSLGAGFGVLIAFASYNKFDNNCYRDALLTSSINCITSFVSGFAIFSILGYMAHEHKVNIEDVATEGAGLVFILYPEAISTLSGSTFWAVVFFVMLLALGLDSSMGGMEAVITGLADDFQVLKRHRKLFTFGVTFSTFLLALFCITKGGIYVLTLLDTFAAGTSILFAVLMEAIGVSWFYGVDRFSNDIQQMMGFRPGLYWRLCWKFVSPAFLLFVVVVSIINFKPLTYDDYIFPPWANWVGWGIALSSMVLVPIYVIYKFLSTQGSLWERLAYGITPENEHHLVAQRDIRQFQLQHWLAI
Method: as §1

[5] = biological target: Muscarinic M5 receptor (Homo sapiens, UniProt P08912)
Chain of Muscarinic M5 receptor (P08912 whole entry): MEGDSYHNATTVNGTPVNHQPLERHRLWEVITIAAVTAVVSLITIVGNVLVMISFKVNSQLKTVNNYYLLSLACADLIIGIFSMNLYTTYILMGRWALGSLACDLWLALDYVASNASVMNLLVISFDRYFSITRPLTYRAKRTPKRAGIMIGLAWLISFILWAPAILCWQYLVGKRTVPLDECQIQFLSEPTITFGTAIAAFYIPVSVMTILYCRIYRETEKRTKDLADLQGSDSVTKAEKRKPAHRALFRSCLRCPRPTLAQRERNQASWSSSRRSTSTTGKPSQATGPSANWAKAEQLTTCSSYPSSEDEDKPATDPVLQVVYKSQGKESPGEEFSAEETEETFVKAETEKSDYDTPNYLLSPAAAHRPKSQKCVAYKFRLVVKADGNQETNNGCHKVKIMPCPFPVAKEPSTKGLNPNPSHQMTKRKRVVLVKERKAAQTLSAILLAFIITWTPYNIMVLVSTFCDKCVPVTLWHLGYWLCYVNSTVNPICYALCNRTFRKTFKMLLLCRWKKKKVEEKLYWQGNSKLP
Method: as §1

[6] = biological target: T2, Serotonin 5-HT2B receptor (Homo sapiens, UniProt P41595)
T2 construct: NIMH Psychoactive Drug Screening Program (PDSP)
Method: as §1

[7] = biological target: T3, Serotonin 5-HT1D receptor (Homo sapiens, UniProt P28221)
T3 construct: NIMH Psychoactive Drug Screening Program (PDSP)
T3 sequence (P28221 whole entry): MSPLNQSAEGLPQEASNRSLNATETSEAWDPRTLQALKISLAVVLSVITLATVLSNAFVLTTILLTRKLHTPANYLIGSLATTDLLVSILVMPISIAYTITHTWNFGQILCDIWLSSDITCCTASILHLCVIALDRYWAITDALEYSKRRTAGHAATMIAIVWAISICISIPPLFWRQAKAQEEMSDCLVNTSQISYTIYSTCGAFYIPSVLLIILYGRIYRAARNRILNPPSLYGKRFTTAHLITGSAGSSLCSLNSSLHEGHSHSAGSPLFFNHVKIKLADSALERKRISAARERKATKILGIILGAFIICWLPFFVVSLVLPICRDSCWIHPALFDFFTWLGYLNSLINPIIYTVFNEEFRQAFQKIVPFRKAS
Method: as §1

[8] = biological target: T4, Serotonin 5-HT7A receptor (Homo sapiens, UniProt P34969)
T4 construct: NIMH Psychoactive Drug Screening Program (PDSP)
Method: as §1

[9] = biological target: T5, Adrenergic Beta2 receptor (Homo sapiens, UniProt P07550)
T5 construct: NIMH Psychoactive Drug Screening Program (PDSP)
Method: as §1

[10] = biological target: Dopamine D4 receptor (Homo sapiens, UniProt P21917)
Method: as §1

[11] = biological target: SERT transporter (Homo sapiens, UniProt P31645)
Chain of SERT transporter (P31645 whole entry): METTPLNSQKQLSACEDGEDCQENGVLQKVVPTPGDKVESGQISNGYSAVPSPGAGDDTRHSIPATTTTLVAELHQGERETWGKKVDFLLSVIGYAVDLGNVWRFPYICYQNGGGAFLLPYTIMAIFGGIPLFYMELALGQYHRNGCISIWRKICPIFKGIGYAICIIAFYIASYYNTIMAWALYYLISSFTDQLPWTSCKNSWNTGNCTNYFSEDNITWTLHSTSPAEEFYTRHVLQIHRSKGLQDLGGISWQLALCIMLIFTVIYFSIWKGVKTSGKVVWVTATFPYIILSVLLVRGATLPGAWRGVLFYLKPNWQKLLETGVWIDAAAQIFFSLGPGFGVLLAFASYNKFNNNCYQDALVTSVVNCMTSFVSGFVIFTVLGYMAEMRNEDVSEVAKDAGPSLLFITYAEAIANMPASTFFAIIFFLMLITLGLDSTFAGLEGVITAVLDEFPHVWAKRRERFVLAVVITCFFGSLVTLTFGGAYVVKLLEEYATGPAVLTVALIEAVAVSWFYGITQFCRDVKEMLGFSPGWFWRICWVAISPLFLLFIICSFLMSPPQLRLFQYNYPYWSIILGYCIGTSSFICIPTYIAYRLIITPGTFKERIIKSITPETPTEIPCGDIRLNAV
Method: as §1

[12] = biological target: T6, Serotonin 5-HT1A receptor (Homo sapiens, UniProt P08908)
T6 construct: NIMH Psychoactive Drug Screening Program (PDSP)
Method: as §1

[13] = biological target: T7, Adrenergic Alpha1D receptor (Homo sapiens, UniProt P25100)
T7 construct: NIMH Psychoactive Drug Screening Program (PDSP)
T7 sequence (P25100 whole entry): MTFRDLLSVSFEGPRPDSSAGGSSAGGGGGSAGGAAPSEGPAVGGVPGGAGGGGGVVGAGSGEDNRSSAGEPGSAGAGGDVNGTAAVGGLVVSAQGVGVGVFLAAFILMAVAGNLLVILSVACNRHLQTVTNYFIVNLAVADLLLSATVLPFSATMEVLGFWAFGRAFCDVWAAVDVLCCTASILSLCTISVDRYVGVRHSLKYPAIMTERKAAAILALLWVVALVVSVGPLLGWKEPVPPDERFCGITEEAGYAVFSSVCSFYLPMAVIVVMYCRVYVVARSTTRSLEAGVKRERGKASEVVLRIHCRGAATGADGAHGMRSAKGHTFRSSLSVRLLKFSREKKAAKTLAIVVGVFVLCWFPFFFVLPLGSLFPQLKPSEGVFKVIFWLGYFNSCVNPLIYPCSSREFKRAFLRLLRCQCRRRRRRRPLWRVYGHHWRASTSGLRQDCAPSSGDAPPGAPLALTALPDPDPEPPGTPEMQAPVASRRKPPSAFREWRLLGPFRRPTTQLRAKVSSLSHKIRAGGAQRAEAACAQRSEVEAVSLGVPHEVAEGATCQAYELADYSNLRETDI
Method: as §1

[14] = biological target: T8, Dopamine D1 receptor (Homo sapiens, UniProt P21728)
T8 construct: NIMH Psychoactive Drug Screening Program (PDSP)
Method: as §1

[15] = biological target: Muscarinic M4 receptor (Homo sapiens, UniProt P08173)
Method: as §1

[16] = biological target: Muscarinic M3 receptor (Homo sapiens, UniProt P20309)
Method: as §1

[17] = biological target: Dopamine D3 receptor (Homo sapiens, UniProt P35462)
Method: as §1

[18] = biological target: μ-opioid receptor (Homo sapiens, UniProt P35372)
Method: as §1

[19] = biological target: T9, Serotonin 5-HT3 receptor (Homo sapiens, UniProt P46098)
T9 construct: NIMH Psychoactive Drug Screening Program (PDSP)
Method: as §1

[20] = biological target: T10, Adrenergic Alpha1A receptor (Homo sapiens, UniProt P35348)
T10 construct: NIMH Psychoactive Drug Screening Program (PDSP)
T10 sequence (P35348 whole entry): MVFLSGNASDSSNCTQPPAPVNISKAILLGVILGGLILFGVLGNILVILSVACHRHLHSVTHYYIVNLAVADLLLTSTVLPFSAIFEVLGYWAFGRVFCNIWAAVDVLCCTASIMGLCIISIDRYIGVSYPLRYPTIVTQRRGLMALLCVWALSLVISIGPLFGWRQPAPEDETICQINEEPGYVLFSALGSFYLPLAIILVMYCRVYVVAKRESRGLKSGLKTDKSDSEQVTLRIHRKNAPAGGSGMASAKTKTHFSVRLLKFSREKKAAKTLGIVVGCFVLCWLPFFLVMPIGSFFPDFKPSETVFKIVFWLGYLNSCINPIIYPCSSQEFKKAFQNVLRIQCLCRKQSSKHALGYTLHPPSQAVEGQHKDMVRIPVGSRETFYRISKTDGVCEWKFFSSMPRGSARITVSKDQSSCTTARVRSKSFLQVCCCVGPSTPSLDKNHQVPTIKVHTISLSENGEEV
Method: as §1

[21] = biological target: T11, Adrenergic Beta1 receptor (Homo sapiens, UniProt P08588)
T11 construct: NIMH Psychoactive Drug Screening Program (PDSP)
Method: as §1

[22] = biological target: Dopamine D5 receptor (Homo sapiens, UniProt P21918)
Method: as §1

[23] = biological target: T12, Serotonin 5-HT1B receptor (Homo sapiens, UniProt P28222)
T12 construct: NIMH Psychoactive Drug Screening Program (PDSP)
T12 sequence (P28222 whole entry): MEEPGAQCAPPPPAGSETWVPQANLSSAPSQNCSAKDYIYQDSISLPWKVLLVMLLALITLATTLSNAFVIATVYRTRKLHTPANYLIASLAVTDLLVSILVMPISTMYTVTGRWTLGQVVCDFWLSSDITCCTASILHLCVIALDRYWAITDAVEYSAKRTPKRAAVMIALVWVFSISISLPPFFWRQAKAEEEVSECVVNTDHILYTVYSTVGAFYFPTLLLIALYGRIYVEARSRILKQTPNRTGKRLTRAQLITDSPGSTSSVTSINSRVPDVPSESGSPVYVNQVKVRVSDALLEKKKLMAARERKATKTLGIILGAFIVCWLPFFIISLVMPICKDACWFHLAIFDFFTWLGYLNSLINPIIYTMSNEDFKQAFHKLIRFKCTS
Method: as §1

[24] = biological target: T13, Serotonin 5-HT5A receptor (Homo sapiens, UniProt P47898)
T13 construct: NIMH Psychoactive Drug Screening Program (PDSP)
Method: as §1

[25] = biological target: T14, Serotonin 5-HT2A receptor (Homo sapiens, UniProt P28223)
T14 construct: NIMH Psychoactive Drug Screening Program (PDSP)
T14 sequence (P28223 whole entry): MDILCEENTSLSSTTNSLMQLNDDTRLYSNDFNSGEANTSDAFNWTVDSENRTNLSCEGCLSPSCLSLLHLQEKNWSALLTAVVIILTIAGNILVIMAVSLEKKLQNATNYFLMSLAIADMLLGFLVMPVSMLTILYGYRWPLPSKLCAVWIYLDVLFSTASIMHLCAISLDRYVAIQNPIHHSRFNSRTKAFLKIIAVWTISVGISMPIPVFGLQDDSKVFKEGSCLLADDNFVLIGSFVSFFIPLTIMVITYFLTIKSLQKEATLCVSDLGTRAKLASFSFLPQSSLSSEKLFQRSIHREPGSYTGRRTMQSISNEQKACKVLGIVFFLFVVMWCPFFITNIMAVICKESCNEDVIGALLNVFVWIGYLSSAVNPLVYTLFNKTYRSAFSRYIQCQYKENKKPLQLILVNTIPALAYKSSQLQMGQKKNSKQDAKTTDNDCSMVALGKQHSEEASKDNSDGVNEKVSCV
Method: as §1

[26] = biological target: T15, Dopamine D2 receptor (Homo sapiens, UniProt P14416)
T15 construct: NIMH Psychoactive Drug Screening Program (PDSP)
Method: as §1

[27] = biological target: DAT transporter (Homo sapiens, UniProt Q01959)
Method: as §1

[28] = biological target: T16, Serotonin 5-HT2C receptor (Homo sapiens, UniProt P28335)
T16 construct: NIMH Psychoactive Drug Screening Program (PDSP)
Method: as §1

[29] = biological target: Histamine H4 receptor (Homo sapiens, UniProt Q9H3N8)
Method: as §1

[30] = biological target: T17, Adrenergic Alpha2C receptor (Homo sapiens, UniProt P18825)
T17 construct: NIMH Psychoactive Drug Screening Program (PDSP)
Method: as §1

[31] = biological target: T18, Adrenergic Alpha1B receptor (Homo sapiens, UniProt P35368)
T18 construct: NIMH Psychoactive Drug Screening Program (PDSP)
Method: as §1

[32] = biological target: Muscarinic M2 receptor (Homo sapiens, UniProt P08172)
Method: as §1

[33] = biological target: Histamine H2 receptor (Homo sapiens, UniProt P25021)
Method: as §1

[34] = biological target: T19, Adrenergic Beta3 receptor (Homo sapiens, UniProt P13945)
T19 construct: NIMH Psychoactive Drug Screening Program (PDSP)
T19 sequence (P13945 whole entry): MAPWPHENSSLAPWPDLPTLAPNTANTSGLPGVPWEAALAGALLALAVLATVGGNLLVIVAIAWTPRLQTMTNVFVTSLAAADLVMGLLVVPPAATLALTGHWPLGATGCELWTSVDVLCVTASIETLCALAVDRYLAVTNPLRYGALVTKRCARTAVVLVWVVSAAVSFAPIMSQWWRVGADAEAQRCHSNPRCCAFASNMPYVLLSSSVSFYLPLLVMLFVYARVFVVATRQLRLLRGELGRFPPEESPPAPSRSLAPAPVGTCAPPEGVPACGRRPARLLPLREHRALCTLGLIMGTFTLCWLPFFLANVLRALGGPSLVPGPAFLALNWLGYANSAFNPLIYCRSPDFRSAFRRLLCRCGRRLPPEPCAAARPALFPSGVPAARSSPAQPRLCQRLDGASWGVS
Method: as §1

[35] = biological target: T20, Benzodiazepine PBR receptor (Rattus norvegicus, UniProt P16257)
T20 construct: NIMH Psychoactive Drug Screening Program (PDSP)
Method: as §1

[36] = biological target: Muscarinic M1 receptor (Homo sapiens, UniProt P11229)
Method: as §1

[37] = biological target: κ-opioid receptor (Homo sapiens, UniProt P41145)
Method: as §1

[38] = biological target: Benzodiazepine BZP receptor
Method: as §1

Measured: IC50

Chain of δ-opioid receptor (P41143 whole entry): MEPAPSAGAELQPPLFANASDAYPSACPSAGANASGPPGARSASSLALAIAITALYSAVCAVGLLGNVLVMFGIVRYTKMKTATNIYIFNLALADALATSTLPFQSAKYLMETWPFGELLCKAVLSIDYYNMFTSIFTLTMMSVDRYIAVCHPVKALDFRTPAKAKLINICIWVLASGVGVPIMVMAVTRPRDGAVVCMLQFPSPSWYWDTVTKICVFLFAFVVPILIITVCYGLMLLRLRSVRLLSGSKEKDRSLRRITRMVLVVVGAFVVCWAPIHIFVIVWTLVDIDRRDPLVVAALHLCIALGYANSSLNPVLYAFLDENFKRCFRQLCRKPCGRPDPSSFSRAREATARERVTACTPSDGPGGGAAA

Nc1cccc2c1C(=S)N(C1CCC(=O)NC1=O)C2=O (centres unmarked) [3-MP, 3-Monothiopomalidomide]
> 10 µM: all assays above
